From patent US11214803B2, “Modulators of YAP1 expression” (Ionis Pharmaceuticals, Inc., priority 2019, dated 2022)
Strand notation (5' to 3'): a small letter for the sugar, then the base; units joined by * are phosphorothioate-linked, units joined directly phosphodiester-linked; [ ] holds rarer units or linkages, { } end groups; capitals alone tell only the bases. k = constrained ethyl (cEt); [5mC] = 5-methylcytosine; d = 2'-deoxy (DNA)

System: Yap1 mRNA
Test: Dose-dependent inhibition of human Yap1 in A-431 cells (Example 7, 10,000 cells per well, RTS36584)
Type: cell-based
Details: free uptake
Protocol: Modified oligonucleotides described in the studies above were tested at various doses in A-431 cells. Cultured A-431 cells at a density of 10,000 cells per well were treated using free uptake with modified oligonucleotides diluted to concentrations described in the tables below. After approximately 48 hours, Yap1 mRNA levels were measured as previously described using the Human Yap1 primer-probe set RTS36584. Yap1 mRNA levels were normalized to total RNA content, as measured by RIBOGREEN®. Results are presented in the tables below as percent control of the amount of Yap1 mRNA relative to untreated control cells (% UTC). IC50s were calculated using a linear regression on a log/linear plot of the data in excel.

[1] = Table 61, 15.6 nM, A-431 cells 10,000 cells per well, 48 hours
[2] = Table 61, 62.5 nM, A-431 cells 10,000 cells per well, 48 hours
[3] = Table 61, 4000.00 nM, A-431 cells 10,000 cells per well, 48 hours
[4] = Table 61, A-431 cells 10,000 cells per well
[5] = Table 56, 15.6 nM, A-431 cells 10,000 cells per well, 48 hours
[6] = Table 56, 62.5 nM, A-431 cells 10,000 cells per well, 48 hours
[7] = Table 56, 4000.00 nM, A-431 cells 10,000 cells per well, 48 hours
[8] = Table 56, A-431 cells 10,000 cells per well
[9] = Table 58, 15.6 nM, A-431 cells 10,000 cells per well, 48 hours
[10] = Table 58, 62.5 nM, A-431 cells 10,000 cells per well, 48 hours
[11] = Table 58, 4000.00 nM, A-431 cells 10,000 cells per well, 48 hours
[12] = Table 58, A-431 cells 10,000 cells per well
[13] = Table 57, 15.6 nM, A-431 cells 10,000 cells per well, 48 hours
[14] = Table 57, 62.5 nM, A-431 cells 10,000 cells per well, 48 hours
[15] = Table 57, 4000.00 nM, A-431 cells 10,000 cells per well, 48 hours
[16] = Table 57, A-431 cells 10,000 cells per well
[17] = 15.6 nM, A-431 cells, 10,000 cells per well, approximately 48 hours
[18] = 62.5 nM, A-431 cells, 10,000 cells per well, approximately 48 hours
[19] = 4000.00 nM, A-431 cells, 10,000 cells per well, approximately 48 hours
[20] = A-431 cells, approximately 48 hours, linear regression on log/linear plot
[21] = Table 59, 15.6 nM, A-431 cells 10,000 cells per well, 48 hours
[22] = Table 59, 62.5 nM, A-431 cells 10,000 cells per well, 48 hours
[23] = Table 59, 4000.00 nM, A-431 cells 10,000 cells per well, 48 hours
[24] = Table 59, A-431 cells 10,000 cells per well
[25] = Table 60, 15.6 nM, A-431 cells 10,000 cells per well, 48 hours
[26] = Table 60, 62.5 nM, A-431 cells 10,000 cells per well, 48 hours
[27] = Table 60, 4000.00 nM, A-431 cells 10,000 cells per well, 48 hours
[28] = Table 60, A-431 cells 10,000 cells per well

958474 (kG*kT*kG*dT*d[5mC]*dT*d[5mC]*d[5mC]*dT*dT*dA*dG*dA*kT*k[5mC]*k[5mC]; antisense) [compound 958474]
Yap1 mRNA, % UTC [1]: 63 % UTC | Yap1 mRNA, % UTC [2]: 37 % UTC | Yap1 mRNA, % UTC [3]: 11 % UTC | IC50 [4]: 30 nM

958476 (kT*kT*k[5mC]*d[5mC]*dG*dG*dT*dG*d[5mC]*dA*dT*dG*dT*kG*kT*k[5mC]; antisense) [compound 958476]
Yap1 mRNA, % UTC [5]: 71 % UTC | Yap1 mRNA, % UTC [6]: 30 % UTC | Yap1 mRNA, % UTC [7]: 6 % UTC | IC50 [8]: 30 nM

958477 (kA*kT*kT*dT*d[5mC]*d[5mC]*dG*dG*dT*dG*d[5mC]*dA*dT*kG*kT*kG; antisense) [compound 958477]
Yap1 mRNA, % UTC [9]: 83 % UTC | Yap1 mRNA, % UTC [10]: 37 % UTC | Yap1 mRNA, % UTC [11]: 6 % UTC | IC50 [12]: 100 nM

958481 (kG*k[5mC]*kA*dA*d[5mC]*dT*dG*dG*d[5mC]*dT*dT*dA*dT*kG*kG*kA; antisense) [compound 958481]
Yap1 mRNA, % UTC [13]: 86 % UTC | Yap1 mRNA, % UTC [14]: 62 % UTC | Yap1 mRNA, % UTC [15]: 14 % UTC | IC50 [16]: 100 nM

958484 (kG*k[5mC]*kA*dG*d[5mC]*dA*dA*dT*dG*dG*dA*d[5mC]*dA*kA*kG*kG; antisense) [compound 958484]
Yap1 mRNA, % UTC [1]: 77 % UTC | Yap1 mRNA, % UTC [2]: 38 % UTC | Yap1 mRNA, % UTC [3]: 4 % UTC | IC50 [4]: 50 nM

958485 (kA*kG*kA*dG*dG*dT*d[5mC]*dA*dG*d[5mC]*dA*dA*dT*kA*k[5mC]*kA; antisense) [compound 958485]
Yap1 mRNA, % UTC [17]: 68 % UTC | Yap1 mRNA, % UTC [18]: 38 % UTC | Yap1 mRNA, % UTC [19]: 8 % UTC | IC50 [20]: 40 nM

958486 (kT*kT*kA*dG*dA*dG*d[5mC]*d[5mC]*dA*dA*d[5mC]*dT*dG*kT*kG*kA; antisense) [compound 958486]
Yap1 mRNA, % UTC [13]: 87 % UTC | Yap1 mRNA, % UTC [14]: 73 % UTC | Yap1 mRNA, % UTC [15]: 22 % UTC | IC50 [16]: 200 nM

958490 (kG*kT*kG*dA*d[5mC]*dA*dT*dG*dA*dA*dG*d[5mC]*dA*kT*k[5mC]*kT; antisense) [compound 958490]
Yap1 mRNA, % UTC [17]: 81 % UTC | Yap1 mRNA, % UTC [18]: 54 % UTC | Yap1 mRNA, % UTC [19]: 13 % UTC | IC50 [20]: 100 nM

958491 (kA*k[5mC]*kT*dA*dA*dA*dT*dG*d[5mC]*dT*dG*dT*dG*kA*k[5mC]*kA; antisense) [compound 958491]
Yap1 mRNA, % UTC [13]: 94 % UTC | Yap1 mRNA, % UTC [14]: 65 % UTC | Yap1 mRNA, % UTC [15]: 10 % UTC | IC50 [16]: 100 nM

958496 (k[5mC]*k[5mC]*kT*dT*dA*dT*dA*dA*dG*d[5mC]*dT*d[5mC]*d[5mC]*kT*kA*kA; antisense) [compound 958496]
Yap1 mRNA, % UTC [5]: 86 % UTC | Yap1 mRNA, % UTC [6]: 53 % UTC | Yap1 mRNA, % UTC [7]: 9 % UTC | IC50 [8]: 90 nM

958500 (kT*k[5mC]*kT*dA*dT*dA*dT*dT*dA*dG*dA*dG*dT*kA*kT*kG) [compound 958500]
Yap1 mRNA, % UTC [17]: 91 % UTC | Yap1 mRNA, % UTC [18]: 63 % UTC | Yap1 mRNA, % UTC [19]: 16 % UTC | IC50 [20]: 100 nM

958505 (kG*kA*kT*dA*dA*dT*d[5mC]*dG*dA*dG*dA*dT*dT*kT*kA*kA; antisense) [compound 958505]
Yap1 mRNA, % UTC [17]: 81 % UTC | Yap1 mRNA, % UTC [18]: 72 % UTC | Yap1 mRNA, % UTC [19]: 21 % UTC | IC50 [20]: 200 nM

958506 (kG*k[5mC]*kA*dG*dA*dT*dA*dA*dT*d[5mC]*dG*dA*dG*kA*kT*kT; antisense) [compound 958506]
Yap1 mRNA, % UTC [13]: 80 % UTC | Yap1 mRNA, % UTC [14]: 55 % UTC | Yap1 mRNA, % UTC [15]: 10 % UTC | IC50 [16]: 100 nM

958507 (kG*kA*kG*d[5mC]*dA*dG*dA*dT*dA*dA*dT*d[5mC]*dG*kA*kG*kA; antisense) [compound 958507]
Yap1 mRNA, % UTC [21]: 93 % UTC | Yap1 mRNA, % UTC [22]: 69 % UTC | Yap1 mRNA, % UTC [23]: 19 % UTC | IC50 [24]: 200 nM

958508 (kG*kA*kG*dA*dG*d[5mC]*dA*dG*dA*dT*dA*dA*dT*k[5mC]*kG*kA; antisense) [compound 958508]
Yap1 mRNA, % UTC [25]: 65 % UTC | Yap1 mRNA, % UTC [26]: 64 % UTC | Yap1 mRNA, % UTC [27]: 13 % UTC | IC50 [28]: 100 nM

958518 (k[5mC]*k[5mC]*kA*d[5mC]*dA*dG*dT*dA*dA*dT*dA*dG*d[5mC]*kT*k[5mC]*kT; antisense) [compound 958518]
Yap1 mRNA, % UTC [21]: 95 % UTC | Yap1 mRNA, % UTC [22]: 55 % UTC | Yap1 mRNA, % UTC [23]: 4 % UTC | IC50 [24]: 100 nM

958523 (kT*kT*k[5mC]*d[5mC]*dA*dA*dT*d[5mC]*dG*dA*dG*dA*d[5mC]*kT*kT*kA; antisense) [compound 958523]
Yap1 mRNA, % UTC [25]: 86 % UTC | Yap1 mRNA, % UTC [26]: 64 % UTC | Yap1 mRNA, % UTC [27]: 12 % UTC | IC50 [28]: 100 nM

958525 (kA*kT*kG*dA*dA*dG*dG*dT*dA*dA*dA*d[5mC]*d[5mC]*kA*k[5mC]*kT; antisense) [compound 958525]
Yap1 mRNA, % UTC [17]: 94 % UTC | Yap1 mRNA, % UTC [18]: 57 % UTC | Yap1 mRNA, % UTC [19]: 8 % UTC | IC50 [20]: 100 nM

958526 (kA*kG*kT*dA*dA*dG*dA*dA*d[5mC]*dA*dA*dT*d[5mC]*kT*kT*kG; antisense) [compound 958526]
Yap1 mRNA, % UTC [13]: 118 % UTC | Yap1 mRNA, % UTC [14]: 83 % UTC | Yap1 mRNA, % UTC [15]: 17 % UTC | IC50 [16]: 200 nM

958527 (kG*kT*kA*dA*dG*dT*dA*dA*dG*dA*dA*d[5mC]*dA*kA*kT*k[5mC]; antisense) [compound 958527]
Yap1 mRNA, % UTC [9]: 89 % UTC | Yap1 mRNA, % UTC [10]: 74 % UTC | Yap1 mRNA, % UTC [11]: 13 % UTC | IC50 [12]: 100 nM

958529 (k[5mC]*kA*kA*dG*dT*d[5mC]*dT*dT*dG*dT*dA*dA*dG*kT*kA*kA; antisense) [compound 958529]
Yap1 mRNA, % UTC [1]: 103 % UTC | Yap1 mRNA, % UTC [2]: 64 % UTC | Yap1 mRNA, % UTC [3]: 11 % UTC | IC50 [4]: 100 nM

958531 (kG*kT*kA*dG*dG*dA*dG*d[5mC]*dA*dA*dG*dT*d[5mC]*kT*kT*kG; antisense) [compound 958531]
Yap1 mRNA, % UTC [13]: 92 % UTC | Yap1 mRNA, % UTC [14]: 63 % UTC | Yap1 mRNA, % UTC [15]: 13 % UTC | IC50 [16]: 100 nM

958532 (kG*kA*kA*dG*dT*dA*dG*dG*dA*dG*d[5mC]*dA*dA*kG*kT*k[5mC]; antisense) [compound 958532]
Yap1 mRNA, % UTC [9]: 88 % UTC | Yap1 mRNA, % UTC [10]: 44 % UTC | Yap1 mRNA, % UTC [11]: 7 % UTC | IC50 [12]: 100 nM

958533 (kG*k[5mC]*kA*dT*dA*dG*dA*dA*dG*dT*dA*dG*dG*kA*kG*k[5mC]; antisense) [compound 958533]
Yap1 mRNA, % UTC [21]: 99 % UTC | Yap1 mRNA, % UTC [22]: 61 % UTC | Yap1 mRNA, % UTC [23]: 12 % UTC | IC50 [24]: 100 nM
